Source: article PMC7671950 (Cellular and molecular neurobiology, 2020)
Like-named read-outs stand apart in the source and are kept apart here.

Legend:
mMOR-1 [1] = biological target: T1, mMOR-1 (Mus musculus, UniProt P42866); details: read-out: Ki mMOR-1; values from literature; ref Majumdar et al. 2012; cited from earlier work
mKOR-1 = mKOR-1 (Mus musculus, UniProt P33534); details: read-out: Ki mKOR-1; values from literature; ref Majumdar et al. 2012; cited from earlier work
[2] = biological target: triple knockout mouse brain (Mus musculus, UniProt P42866); details: read-out: Ki Triple KO; values from literature; ref Majumdar et al. 2012; cited from earlier work
Chain of triple knockout mouse brain (P42866 96-398): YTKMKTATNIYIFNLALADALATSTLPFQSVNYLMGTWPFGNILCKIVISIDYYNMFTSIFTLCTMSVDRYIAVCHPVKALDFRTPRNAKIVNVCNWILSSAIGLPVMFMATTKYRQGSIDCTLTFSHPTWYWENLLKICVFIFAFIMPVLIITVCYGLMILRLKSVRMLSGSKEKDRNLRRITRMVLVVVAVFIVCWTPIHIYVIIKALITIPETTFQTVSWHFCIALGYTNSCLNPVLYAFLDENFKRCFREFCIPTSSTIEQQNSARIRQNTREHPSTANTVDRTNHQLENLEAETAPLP

6TM/E11 [3] = biological target: T2, 6TM/E11 (Mus musculus, UniProt P42866); details: read-out: Ki 6TM/E11; values from literature; ref Majumdar et al. 2012; cited from earlier work
T2 sequence (P42866 95-386 limits assumed): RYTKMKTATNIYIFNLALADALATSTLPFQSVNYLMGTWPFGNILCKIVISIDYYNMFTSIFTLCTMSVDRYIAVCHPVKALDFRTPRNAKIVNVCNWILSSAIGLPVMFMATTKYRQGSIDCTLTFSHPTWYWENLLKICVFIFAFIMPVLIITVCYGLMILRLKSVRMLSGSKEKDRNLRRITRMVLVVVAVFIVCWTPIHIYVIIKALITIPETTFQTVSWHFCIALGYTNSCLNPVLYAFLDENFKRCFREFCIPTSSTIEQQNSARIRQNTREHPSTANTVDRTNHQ

mMOR-1 [4] = biological target: T1, mMOR-1; experiment: [35S]GTPγS functional assay; assay type: biochemical; details: for mMOR-1 Emax: percent maximal stimulation relative to DAMGO at 1000 nM; for functional character at MOR-1: [35S]GTPγS functional assays; for Emax: read-out: mMOR-1 Emax
mDOR-1 = mDOR-1 (Mus musculus, UniProt P32300); details: read-out: Ki mDOR-1; values from literature; ref Majumdar et al. 2012; cited from earlier work
Chain of mDOR-1 (P32300 whole entry): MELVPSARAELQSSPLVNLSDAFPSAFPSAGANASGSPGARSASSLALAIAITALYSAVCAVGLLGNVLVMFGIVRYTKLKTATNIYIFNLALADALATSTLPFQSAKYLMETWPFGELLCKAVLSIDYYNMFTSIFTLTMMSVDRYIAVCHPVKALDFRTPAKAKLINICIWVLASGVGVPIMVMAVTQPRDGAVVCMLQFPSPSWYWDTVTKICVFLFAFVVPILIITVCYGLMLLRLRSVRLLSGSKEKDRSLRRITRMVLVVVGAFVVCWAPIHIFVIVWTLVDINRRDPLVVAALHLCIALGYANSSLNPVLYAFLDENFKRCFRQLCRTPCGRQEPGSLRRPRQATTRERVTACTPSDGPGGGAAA

6TM/E11 [5] = biological target: T2, 6TM/E11
[6] = read-out: mMOR-1 EC50, [35S]GTPγS binding, mean ± SEM, 3 replications

T1 sequence (P42866 whole entry): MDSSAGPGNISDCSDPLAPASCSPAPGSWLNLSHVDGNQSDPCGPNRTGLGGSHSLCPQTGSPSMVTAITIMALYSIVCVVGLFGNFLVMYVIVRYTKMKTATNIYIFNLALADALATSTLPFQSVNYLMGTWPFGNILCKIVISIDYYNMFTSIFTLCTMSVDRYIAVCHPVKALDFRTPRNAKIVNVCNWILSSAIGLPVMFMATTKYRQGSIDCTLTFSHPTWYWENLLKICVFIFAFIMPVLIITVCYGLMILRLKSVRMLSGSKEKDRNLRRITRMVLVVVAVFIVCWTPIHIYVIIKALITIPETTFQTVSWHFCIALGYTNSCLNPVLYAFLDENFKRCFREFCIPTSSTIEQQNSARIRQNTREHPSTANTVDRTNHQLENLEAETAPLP
Chain of mKOR-1 (P33534 whole entry): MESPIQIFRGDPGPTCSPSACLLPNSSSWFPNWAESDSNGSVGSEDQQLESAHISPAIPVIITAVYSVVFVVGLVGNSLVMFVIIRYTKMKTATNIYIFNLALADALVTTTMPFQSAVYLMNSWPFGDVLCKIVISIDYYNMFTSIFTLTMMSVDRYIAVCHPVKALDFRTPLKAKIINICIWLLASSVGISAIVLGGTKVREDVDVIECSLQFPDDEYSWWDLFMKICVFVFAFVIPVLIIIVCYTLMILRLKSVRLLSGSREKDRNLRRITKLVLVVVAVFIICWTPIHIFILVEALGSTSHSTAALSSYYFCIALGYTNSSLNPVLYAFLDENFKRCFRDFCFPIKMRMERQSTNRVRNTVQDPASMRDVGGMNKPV

| SMILES | Ki (mMOR-1 [1]) [nM] | Ki (mKOR-1) [nM] | Ki [2] [nM] | Ki (6TM/E11 [3]) [nM] | mMOR-1 Emax (mMOR-1 [4]; mean ± SEM) [%] | EC50 (mMOR-1 [4]; [6]) [nM] | Ki (mDOR-1) [nM] | Ki (6TM/E11 [5]) [nM] | EC50 (mMOR-1 [4]) [nM] | functional character at MOR-1 (mMOR-1 [4]) | Emax (mMOR-1 [4]) [%] |
| --- | --- | --- | --- | --- | --- | --- | --- | --- | --- | --- | --- |
| O=C(N[C@@H]1CC[C@@]2(O)[C@H]3Cc4ccc(O)c5c4[C@@]2(CCN3CC2CC2)[C@H]1O5)c1cccc(I)c1 [IBNtxA, 3’-iodobenzoylnaltrexamide] | 0.11 ± 0.02 | 0.03 ± 0.001 | 0.12 ± 0.04 | 0.16 ± 0.04 | 101 ± 3 | 0.49 ± 0.12 | 0.24 ± 0.1 | – | – | – | – |
| C=CCN1CC[C@]23c4c5ccc(O)c4O[C@H]2[C@H](NC(=O)c2cccc(I)c2)CC[C@@]3(O)[C@H]1C5 [IBNalA] | 0.22 ± 0.12 | 0.08 ± 0.06 | – | 0.25 ± 0.12 | 75 ± 3.5 | 1.4 ± 0.3 | 2.55 ± 0.18 | – | – | – | – |
| C=CCN1CC[C@]23c4c5ccc(O)c4O[C@H]2[C@H](NC(=O)c2ccc(N=[N+]=[N-])c(I)c2)CC[C@@]3(O)[C@H]1C5 [IBzA 10, N-((4R,4aS,7R,7aR,12bS)-3-Allyl-4a,9-dihydroxy-2,3,4,4a,5,6,7,7a-octahydro-1H-4,12-methanobenzofuro[3,2-e]isoquinolin-7-yl)-4-azido-3-iodobenzamide] | – | – | – | – | – | – | – | 4.64 ± 0.2 | 0.86 ± 0.24 | full agonists | 122 ± 3 |
| C#CCN1CC[C@]23c4c5ccc(O)c4O[C@H]2[C@H](NC(=O)c2ccc(N=[N+]=[N-])c(I)c2)CC[C@@]3(O)[C@H]1C5 [Alkynyl-IBzA 17, 4-Azido-N-((4R,4aS,7R,7aR,12bS)-4a,9-dihydroxy-3-(prop-2-yn-1-yl)-2,3,4,4a,5,6,7,7a-octahydro-1H-4,12-methanobenzofuro[3,2-e]isoquinolin-7-yl)-3-iodobenzamide] | – | – | – | – | – | – | – | 12 ± 1.63 | 1.1 ± 0.1 | full agonists | 103 ± 3 |
